In one experiment the test system is Anabaena PCC7120. Kind of experiment: In vivo growth in BG-11 media with commercial herbicides. Format: cell-based. The following applies: 100 μM, one week of culture in BG-11 media. Here is the method:
(§1) In vivo resistance of cyanobacteria to PURSUIT® imazethapyr and OUST® sulfometuron methyl. As a preliminary matter, Synechocystis PCC6803 and Anabaenia PCC7120 were tested for susceptibility to PURSUIT® imazethapyr and OUST® sulfometuron methyl. AHAS genes which are resistant to these herbicides are excellent candidates for transformation in plant plastomes and nuclear genomes. Such transformants can be used in a weed control strategy using a combination of transgenic herbicide resistant crops and herbicides.
(§2) In vivo testing of Synechocystis PCC6803 and Anabaena PCC7120 was done by culturing the organisms in varying concentrations of the commercial herbicides. […] For relative comparison purposes a concentration of 1 μM PURSUIT® imazethapyr in agar media is lethal to Arabidopsis plants.

Another experiment deals with Synechocystis PCC6803. The experiment is described as above. Format: cell-based. The conditions noted are these: 100 μM, one week of culture in BG-11 media. How it is done:
as §1, §2

The next experiment deals with Synechocystis AHAS. Kind of experiment: In vitro AHAS assay. Format: biochemical, Synechocystis PCC6803. The following applies: 100 μM. Here is the method:
(§3) AHAS is the target site of both PURSUIT® imazethapyr and OUST® sulfometuron methyl herbicides. To determine if resistance to the herbicides is due to a natural resistance to inhibition of the acetohydroxyacid synthase enzymes from the cyanobacteria, or if it is due to alternative mechanisms (e.g. lack of entry into the cell), the in vitro activity of the AHAS enzyme in the presence of the herbicides was tested.
(§4) AHAS assays were performed with slight modification as described by Singh et. al (Singh B K, Stidham M A, Shaner D L, 1988, Assay for acetohydroxyacid synthase from plants. Anal Biochem 171: 173-179).
(§5) Synechocystis PCC6803 and Anabaena PCC7120 were cultured in 1.5 L of BG-11 media. Cells were collected by centrifuge and stored frozen at −80° C. Frozen cells were thawed and placed in a 30 mL Bead Beater cell disruptor chamber (BioSpec Corp Bartlesville, Okla.). Seven mL of acid washed sand was added. The chamber was filled with 2× ASHA assay buffer, consisting of 100 mM HEPES pH7.0, 200 mM pyruvate, 20 mM MgCl2, 2 mM TPP (Thiamine pyrophosphate) and 100 μM FAD (flavin adenine dinucleotide).
(§6) The Bead Beater cell disruptor was packed in ice and turned on for 10 seconds, followed by cooling for 3 minutes. This cycle was repeated five times. The extract was transferred into a centrifuge tube, and spun in a Beckman SA20 (Beckman, Fullerton, Calif.) rotor for 15 minutes at 17,000 rpms. […]

In a further experiment the test system is Anabaena AHAS. Kind of experiment: In vitro AHAS assay. The conditions noted are these: 100 μM. Format: biochemical, Anabaena PCC7120. Here is the method: as §3, §4, §5, §6
Another experiment has as its system Arabidopsis plants. Kind of experiment: Lethality to Arabidopsis plants in agar media. It counts as in vivo. How it is done:
as §2

In the next experiment the test system is Wild type (W-38) tobacco. The experiment in a line: PURSUIT imazethapyr spray test, wild type tobacco. The following applies: 18 g/ha, 5 weeks after the test. It counts as in vivo. Here is the method: (§7) Observations and photos (FIG. 8) of the PURSUIT® imazethapyr spray test were taken 5 weeks after the test was conducted. […] Leaves assumed a thin, spiny form.

The test system of experiment [1] is p111 and p112 transplastomic tobacco lines. Kind of experiment: PURSUIT imazethapyr spray test, p111 and p112 lines. Format: in vivo. The following applies: 18 g/ha, 5 weeks after the test. Here is the method:
as §7

The test system of another experiment is p116 line G-981208-1.1. Kind of experiment: PURSUIT imazethapyr spray test, p116 line. Format: in vivo, tobacco. How it is done:
as §7

Experiment [2] relates to AHAS enzyme of pACBC222 line G-981208-1.1. Kind of experiment: AHAS enzyme assay of transplastomic tobacco line. It counts as biochemical. The conditions noted are these: line sprayed with 18 g/ha PURSUIT imazethapyr; assay in the presence of the herbicide.
The test system of experiment [3] is E. coli M1262 expressing the cyanobacterial ahas gene. Kind of experiment: Growth on minimal media of E. coli M1262 expressing the cyanobacterial ahas gene. Format: cell-based. An excerpt:
To confirm that these plasmids carry functional AHAS sequences, plasmid DNA from each of the ten rescued colonies was transformed into the E. coli strain M1262. (leuB6, ilv1614, ilvH612, λ^−, relA1, spoT1, ilvB619, ilvG603, ilfG605(am), thi-1) (Genetics Stock Center, Yale University). This strain of E. coli is lacking in AHAS. […] The ahas gene can therefore be used for achieving herbicide tolerance in crops by transformation into the nuclear or plastidic genome.

Take `CCc1cnc(C2=NC(C)(C(C)C)C(=O)N2)c(C(=O)O)c1` (stereo not shown) [PURSUIT® imazethapyr, imazethapyr]: the inhibition of growth result in the experiment on Anabaena PCC7120 and in the experiment on Synechocystis PCC6803 was “No inhibition of growth” throughout. Moreover, the “inhibition of AHAS enzyme” value in the experiment with Synechocystis AHAS and with Anabaena AHAS was “No significant inhibition” in each case. The “concentration lethal to Arabidopsis plants” value in the experiment with Arabidopsis plants worked out at 1 µM. Besides, the spray test observation entry with Wild type (W-38) tobacco was “wide-spread leaf necrosis and stunting of growth”; in experiment [1], “wide-spread leaf necrosis and stunting of growth”. In addition, the growth result is “uninhibited” in the experiment with p116 line G-981208-1.1 (18 g/ha, 5 weeks after the test) and “slight stunting” in the experiment with p116 line G-981208-1.1 (35 g/ha, 5 weeks after the test). Also, the leaf damage entry with p116 line G-981208-1.1 (18 or 35 g/ha, 5 weeks after the test) was “no visible leaf damage”. Further, the “effect on new shoots and morphology” value with p116 line G-981208-1.1 (p116 line, prolific shooting and morphological abnormalities in new shoots) was “strong growth regulator”. The “increase in AHAS enzyme resistance compared with AHAS enzyme from unsprayed wild type tobacco” value in experiment [2] is on record as ~20%. Moreover, the “growth on minimal media in the presence of the herbicide” value in experiment [3] was “capable of growing”.
